Assay results as given in patent US20030143744A1, “Method for the production of cotton somatic embryos” (priority 2000, published 2003).

Experiments:
Assay type in all cases: cell-based, Cotton (Gossypium hirsutum L.)
[1] = test system: embryogenic callus / somatic embryos; test: Somatic embryo histodifferentiation on differentiation medium
Protocol: Following callus initiation, calluses were sub-cultured, every 4-5 weeks, to callus initiation medium or to basal medium without growth regulators, either solidified or liquid, agitated (under orbital shaking at 110 rpm) or to the surface of filter paper (Whatman™ n° 1) bridges, inserted into macrowell plates (34 mm in diameter, well), containing 3-4 ml of liquid medium to induce somatic embryogenesis. Liquid cultures were maintained by subculture at 2 week intervals. Primary calli containing embryogenic clumps were sub-cultured to somatic embryo differentiation media. A culture medium similar to embryogenesis callus induction medium was used, but modified to contain 10 mM glutamine (Price and Smith 1979 (Planta 145: 305-307.), Cousins et al. 1991 Aust. J. Plant Physiol. 18: 481-494.), 5.4 μM NAA, 2.5 μM iP and solidified with 0.2% gelrite. The effect of abscisic acid (ABA, 0.0, 0.19, 0.38, 1.9 μM) on somatic embryo histodifferentiation was tested.

[2] = test system: epidermal strips of Coker line 312; test: Callus initiation from epidermal strips of Coker line 312; conditions: cytokinin at 4.9 μM, medium further supplemented with NAA (10.7 μM); basal region of bract
Protocol: Following disinfection, bracts were soaked in sterile distilled water, for at least 3 h, to facilitate peeling. Epidermal strips were carefully excised from the lower epidermis, using fine forceps under sterile conditions. The enzymatic treatment of epidermal strips was tested for the removal of all contaminating mesophyll and vascular tissues as follows: strips were immersed for 2-3.5 h, in a filter sterilised solution containing Linsmaier & Skoog salts (1965), Cellulysin (0.2% w/v), Hemicellulase (0.2% w/v), polyvinylpyrrolidone (PVP-40, 0.1% w/v) and pH adjusted to 5.5.
Epidermal fragments (3-10 mm size), with or without enzymatic treatment, were placed in Petri dishes (32 mm in diameter) containing 2 ml semi-solid medium, with the cuticle side either in contact with the medium or upwards.
(§1) A basal medium containing Murashige and Skoog ((1962) Physiol Plant 15: 473-497.) salts, Trolinder & Goodin ((1988a) Plant Cell Tiss Org Cult 12: 31-42.) vitamins and glucose (166.5 mM equivalent to 30 g.l^−1) was used throughout the experiments. For callus initiation, basal medium was supplemented with naphthalene acetic acid (NAA, 2.7, 5.4, 10.7 and 21.5 μM) and isopentenyladenine (iP, 1.3, 2.5 and 4.9 μM). In addition, the effects of thidiazuron (tdz), kinetin (kin) and iP, each at a concentration of 4.9 μM, were tested for their effect on callus morphology and development. Callus initiation was evaluated after 3-6 weeks. Media was used as liquid or solidified (geirite 1.6 g.l^−1 plus 7.9 mM MgCl2). Twenty to thirty epidermal strips were cultured per dish.
The effect of shading of the culture dishes on callus initiation was also evaluated. One or two dishes containing a layer of culture medium (2 ml) were placed on the top of dishes containing the cultures. Dishes were incubated on full light (26.3 μmol. m^−2.s^−1) or under reduced light irradiance, respectively, under shade from 1 dish (21.0 μmol. m^−2.s^−1) or shading from two dishes (15.8 μmol. m^−2.s^−1).

[3] = test system: both Coker lines (312 and 315); test: Callus initiation, growth and morphology by growth regulators
Protocol: as §1
Epidermal strips were excised from the whole bract of Coker line 315 and cultured on medium containing NAA (2.7, 5.4, 10.7 and 21.5 μM) and iP (1.3, 2.5 and 4.9 μM). Two to four independent experiments were carried out and 1300 epidermal strips were used in these studies.
Callus initiation, growth and morphology from both Coker lines (312 and 315) were influenced by the growth regulators in the callus initiation medium. […] In addition, there were no statistical significant differences in callus induction frequency within the remaining range of treatments tested.

Compound	somatic embryo differentiation ([1]; ABA 0.0 or 1.9 μM)	somatic embryo differentiation ([1]; ABA 0.19-0.38 μM, after 3-4 weeks)	callus induction [2] [%]	time to similar size of callus ([3]; iP 1.2 μM) [weeks]	time to macroscopic calluses ([3]; iP 4.9 μM)
CC1=CC(=O)CC(C)(C)[C@@]1(O)/C=C/C(C)=C\C(=O)O [ABA, abscisic acid]	less uniform	Synchronised embryo differentiation and improved somatic embryo uniformity	–	–	–
c1coc(CNc2ncnc3[nH]cnc23)c1 [Kin, kinetin]	–	–	8.6±0.7	–	–
O=C(Nc1ccccc1)Nc1cnns1 [Tdz, thidiazuron]	–	–	31.3±4.5	–	–
CC(C)=CCNc1ncnc2nc[nH]c12 [iP, isopentenyladenine]	–	–	36.3±15.8	8	4-5 weeks
